One cell line from the supplement of paper PMC10307832 can be followed below.

Assay in all cases: relative viability (nuclei count vs DMSO), 5 days (fraction); higher = more cells survive
Compound in the test “Lapatinib + Trametinib”: CS(=O)(=O)CCNCc1ccc(-c2ccc3ncnc(Nc4ccc(OCc5cccc(F)c5)c(Cl)c4)c3c2)o1 [Lapatinib] + CC(=O)Nc1cccc(-n2c(=O)n(C3CC3)c(=O)c3c(Nc4ccc(I)cc4F)n(C)c(=O)c(C)c32)c1 [Trametinib] (partner 0.02 µM)
Summed up: (§1)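 Lung cancer cell lines in 1536-well plates were dosed by pin tool the day after seeding, either with one drug alone or with a fixed anchor-drug dose plus five library-drug doses (not always all listed) in √10 steps. After 5 days, cells were fixed and their nuclei stained in one step (final 0.05% Triton X-100, 1% formaldehyde, 1 ug/ml Hoechst), then counted on 4× images. Relative viability is the nuclei count in treated wells divided by that in vehicle wells. Values are medians of duplicate plates.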

Compound in the test “Lapatinib + Palbociclib”: CS(=O)(=O)CCNCc1ccc(-c2ccc3ncnc(Nc4ccc(OCc5cccc(F)c5)c(Cl)c4)c3c2)o1 [Lapatinib] + CC(=O)c1c(C)c2cnc(Nc3ccc(N4CCNCC4)cn3)nc2n(C2CCCC2)c1=O [Palbociclib] (partner 0.5 µM)
Summed up:
as §1

Compound in the test “Lapatinib + Tozasertib”: CS(=O)(=O)CCNCc1ccc(-c2ccc3ncnc(Nc4ccc(OCc5cccc(F)c5)c(Cl)c4)c3c2)o1 [Lapatinib] + Cc1cc(Nc2cc(N3CCN(C)CC3)nc(Sc3ccc(NC(=O)C4CC4)cc3)n2)n[nH]1 [Tozasertib] (partner 0.1 µM)
Summed up:
as §1

Compound in the test “Lapatinib + Alpelisib”: CS(=O)(=O)CCNCc1ccc(-c2ccc3ncnc(Nc4ccc(OCc5cccc(F)c5)c(Cl)c4)c3c2)o1 [Lapatinib] + Cc1nc(NC(=O)N2CCC[C@H]2C(N)=O)sc1-c1ccnc(C(C)(C)C(F)(F)F)c1 [Alpelisib] (partner 2 µM)
Summed up: as §1

Take UMC-11: the relative viability is 0.293 with Lapatinib + Trametinib (first compound 0.02 µM); 0.617 with Lapatinib + Trametinib (first compound 0.06325 µM); 0.69 with Lapatinib + Trametinib (first compound 0.2 µM); 0.76 with Lapatinib + Trametinib (first compound 0.6325 µM); 0.676 with Lapatinib + Trametinib (first compound 2 µM); 0.391 with Lapatinib + Palbociclib (first compound 0.02 µM). The relative viability with Lapatinib + Palbociclib (first compound 0.06325 µM) is 0.347; with Lapatinib + Palbociclib (first compound 0.2 µM), 0.301; with Lapatinib + Palbociclib (first compound 0.6325 µM), 0.282; with Lapatinib + Palbociclib (first compound 2 µM) it was 0.27; in the test with Lapatinib + Tozasertib (first compound 0.06325 µM) it was 0.211; with Lapatinib + Tozasertib (first compound 0.2 µM), 0.209. Also, the relative viability came out at 0.184 in the test with Lapatinib + Tozasertib (first compound 0.6325 µM); 0.211 in the test with Lapatinib + Tozasertib (first compound 2 µM); 0.861 with Lapatinib + Alpelisib (first compound 0.02 µM); 0.933 with Lapatinib + Alpelisib (first compound 0.06325 µM); 0.986 in the test with Lapatinib + Alpelisib (first compound 0.2 µM); 0.887 with Lapatinib + Alpelisib (first compound 0.6325 µM). For the same cell line, in the test with Lapatinib + Alpelisib (first compound 2 µM), the relative viability was 1.09.
